Test results: US9650404B2 (RESEARCH FOUNDATION OF THE CITY UNIVERSITY OF NEW YORK, priority 2010, dated 2017)
≈ marks a conversion by molar mass, not a printed value. Entries after “also recorded” stand apart in the source; their conditions may differ.

Assays:
[1] = system: cultured hippocampal slices (normal brain tissue); experiment: MTT cell viability assay on cultured hippocampal slices; assay type: cell-based, mouse; conditions: for cell viability (MTT) versus control: overnight, hippocampal slices
Procedure: To assess the viability of the normal brain tissue in presence of the sweet curry MTT assay on cultured hippocampal slices were performed.
Mouse pups of specific ages were anesthetized with ketamine (100 mg/kg) and decapitated. Under sterile conditions, the brains were isolated and then cut at 60° from the longitudinal fissure at the top using a hippocampus-dissecting tool to expose the hippocampus. The hemispheres containing the hippocampi were then placed in modified Gey's balanced salt solution (mGBSS) at 4° C. for 30-40 minutes while bubbling a mixture of 95% O2 and 5% CO2. Individual hippocampi were isolated using dissection tool and then […] thick transverse slices were prepared using a tissue chopper (Stoelting, Wood Dale, Ill., USA). The slices were placed in ice cold mGBSS and inspected using a dissection microscope for the presence of uninterrupted bright transparent neuronal layers characteristic of the hippocampal structure. Only such slices were placed on Millicell CM filters (Millipore, Bedford, Mass., USA). The filters were placed in a six well dish with 1 ml of medium in each well. The slices were kept on high K^+ culture medium (25% horse serum, 50% Basal Essential Media-Eagles, 25% Eagle's Balanced Salt Solution (EBSS), 25 mM Na-HEPES, 1 mM Glutamine, 28 mM Glucose, pH 7.2) for the first two days. After incubation at 32° C. in a 5% CO2 atmosphere, the culture medium was changed to physiological K^+ slice culture medium (20% dialyzed fetal bovine serum, 5% Basal Essential Media-Eagles, and EBSS modified to adjust the K^+ concentration to 2.66 mM). After 20% dialyzed serum treatment for two days and the slices were placed in 5% serum medium (same medium as above but with 5% serum) for two days.
Hippocampal slices from adult mice brain were cultured as described by Mehta et al (2007). After six days in vitro the slices were treated with different concentrations of the sweet curry (i.e., 8 nM, 8 μM and 80 μM respectively) overnight along with the slices treated with the carrier as control.
After the treatment with sweet curry, slices from each treatment group were placed in 400 μl PBS in one well of 48-well plate and then treated with 200 μl of MTT (5 mg/ml) per well with gentle mixing at 37° C. for 2 hours. The slices were triturated to homogenize with the help of a micropipette. After that 800 μl of lysis buffer (20% SDS, 50% dimethylformamide) was added to each well and the plate was sealed and incubated overnight at 37° C. with gentle mixing. Now 100 μl mix from each well was taken in respective wells of a 96 well plate in triplicates and absorbance was measured at 570 nm using a plate reader. Results obtained were normalized to the total protein content and then expressed as percent carrier-treated samples.

[2] = target: T1, Amyloid βeta (Aβeta) fragment 25-35 (Homo sapiens, UniProt P05067); experiment: Dissolution of Amyloid beta fragments (transmission electron microscopy); assay type: biochemical; conditions: for concentration at which the compound works in dissolving amyloid aggregates: Aβeta 25-35 50 μg/ml, 37° C., 6 days
T1 construct: Amyloid βeta (Aβeta) fragment 25-35 (Sigma A-4559); purchased Sigma A-4559
Procedure: Amyloid βeta (Aβeta) fragment 25-35 (Sigma A-4559) was diluted in water to a stock of 1 mg/ml. […] Samples were incubated at 37° C. for 6 days. Aggregation of the protein fragment was determined using transmission electron microscopy. 200 mesh carbon coated grids (Electron Microscopy Sciences) were used and prepared for negative staining by adding 5 μl of incubation mixture to the grid surface for one minute, followed by drying the grid with filter paper and contrasting with 5 μl of freshly filtered 2% phosphotungstic acid (pH=7.2) for one minute. Once grids were dry, examination was done using the FEI Tecnai Spirit at the College of Staten Island's Advanced Imaging Facility. Micrographs were captured using an AMT CCD camera.

[3] = Antioxidant potentiality assay by linoleic acid peroxidation (thiocyanide method); conditions: in water, aqueous medium; FIG. 1
Procedure: 0.28 gm of linoleic acid, 0.28 gm of tween 40 as emulsifier and 50 ml of phosphate buffer (0.2 M, pH 7) were used to prepare a linoleic acid emulsion. The curcuminoids (5 mg per ml) were dissolved in water and 0.5 ml of each one of them was pipetted out into different test-tubes. Then 2.5 ml of linoleic acid emulsion was added to each one of them followed by the addition of 2.5 ml of phosphate buffer. All the tubes were incubated at 37° C. for 7 days. The mixture prepared as above without test sample was the control one. At the regular interval of 24 hours, 0.1 ml of the aliquots were drawn out of the incubation mixture and mixed with 5 ml of 75% ethanol, 0.1 ml of 30% ammonium thiocyanate and 0.1 ml of 20 mM ferrous chloride in 3.5% HCl. The tubes were allowed to stand in room temperature for 3 minutes. Spectrophotometric analysis was done at 500 nm. All the tests were carried out in duplicate and averaged. Anoxidant activity=[1-increase in absorbance of the sample/increase in absorbance of control]*100.

[4] = Solubility study via UV-Vis spectroscopy (direct solubility in water)
Procedure: Both sample were centrifuged at 13,000 RPM for 2 min. 100 μL of the sugar conjugate solution was added to 900 μL of deionized water and thoroughly mixed. […] It should be noted that the solubility study outlined above measures the direct solubility of the compounds in water and closely models “real life” conditions, in contrast to other experiments in which the compounds are first dissolved in other solvents followed by dilution in water.

COc1cc(/C=C/C(=O)CC(=O)/C=C/c2ccc(OCc3cn(CCOCCOCCOC4OC(CO)C(O)C(O)C4O)nn3)c(OC)c2)ccc1O (centres unmarked) [Compound 1d, curcumin-“Clicked”-mono-galactose]
effect on normal brain tissue (viability), conclusion ([1]; 8 nM to 80 μM): no harmful effect on the normal brain tissue | cell viability (MTT) versus control ([1]; 8 nM): near the control samples | cell viability (MTT) versus control ([1]; 8 μM): near the control samples | cell viability (MTT) versus control ([1]; 80 μM): a little higher than the control samples | concentration at which the compound works in dissolving amyloid aggregates ([2]; electron micrographs): 8 nmol | effectiveness in dissolving amyloid aggregates ([2]; electron micrographs): significantly more effective than curcumin in dissolving amyloid aggregates | effectiveness in dissolving amyloid aggregates relative to curcumin ([2]; ratio of working concentrations): 1000 times | anti-oxidant potential (AOP), comparison in words [3]: much better antioxidant than Curcumin 1 as well as other curcumin derivatives (1a,1b) | solubility ([4]; deionized water, water, thermodynamic from solid): 6 mM (≈ 4460 µg/mL) | solubility in water relative to curcumin and derivatives ([4]; water (plasma model), listed as Sweet curry 1d): far superior solubility compared to curcumin in water; also recorded: superiorly soluble in water compared to Curcumin and derivatives 1a and 1b

COc1cc(/C=C/C(=O)CC(=O)/C=C/c2ccc(O)c(OC)c2)ccc1O [curcumin, (1E,6E)-1,7-bis(4-hydroxy-3-methoxyphenyl)hepta-1,6-diene 3,5-dione, reference compound]
concentration at which the compound works in dissolving amyloid aggregates ([2]; electron micrographs): 8 µM
